{
  "source": "paper PMC8241160",
  "about": "“Enhanced oral bioavailability and anticancer efficacy of fisetin by encapsulating as inclusion complex with HPβCD in polymeric nanoparticles” (Drug Delivery, 2017)",
  "key": {"[1]": {"experiment": "Apparent solubility of FST and FHIC in aqueous phase", "type": "physicochemical", "details": "PBS", "procedure": "For the determination of apparent solubility, native FST and FHIC were added into 10 ml of PBS and stirred in an orbital shaker for 24 h (Madan et al., [2012]). The solutions were centrifuged (10 000 rpm for 15 min), supernatant was collected and filtered through 0.22 μm filter. After appropriate dilution, FST absorbance was measured using UV-visible spectroscopy at 360 nm. The calibration curve was prepared in the range of 1–20 μg/ml. The observed regression equation was Y = 0.054X + 0.058 with r^2=0.997."}, "[2]": {"design": "method as in Seguin et al., 2013", "details": "ref Seguin et al., 2013; cited from earlier work"}, "[3]": {"experiment": "Encapsulation efficiency (indirect method)", "type": "physicochemical", "details": "FST encapsulated in PLGA nanoparticles", "procedure": "The amount of drug loaded in the nanoparticles was determined by indirect method. Nanoparticle dispersion was centrifuged using Centrisart tubes (Sartorius, Bohemia, NY) and supernatant was analyzed for FST content using UV-visible spectrophotometry at 360 nm. The EE was calculated as follows: EE (%) = {(DT – DS)/DT} × 100, where DT=total FST added; DS=FST in the supernatant."}, "[4]": {"experiment": "Pharmacokinetic study after oral administration", "type": "in vivo", "details": "10 mg/kg FST equivalent, C57BL6 mice, plasma", "procedure": "The animal experiments were performed in accordance with the Committee for the Purpose of Control and Supervision of Experiments on Animals (CPCSEA) guidelines after approval from Institutional Animal Ethics Committee (IAEC) of the institution (Approval no. IICT/39/2016). Female C57BL6 mice weighing from 18 to 22 g were kept for overnight fasting before the start of the experiment and allowed free access of water ad libitum.\nC57BL6 mice were divided into two groups containing 27 animals in each. Animals in group I received pure FST (as 1% gum acacia suspension) orally at a dose of 10 mg/kg body weight and the animals in group II received FHIC-PNP (FST equivalent to 10 mg/kg) orally. At predetermined time intervals, blood samples were collected from retro-orbital plexus into centrifuge tube containing EDTA. Samples were centrifuged at 4000 rpm for 15 min and supernatant (plasma) was collected and stored at −80 °C for further analysis by LC/MS.\nPlasma samples were extracted by solvent mixture composed of chloroform and acetonitrile (1:1). The mixture was kept in shaker for 10 min and the supernatant layer was transferred into another Eppendorf tubes. Evaporation of organic solvent was done on ScanVac speed vacuum concentrator and 100 μl of acetonitrile was added and vortexed. A volume of 2 μl aliquots of sample solution were injected into LC–MS/MS for analysis. The linearity of the method was evaluated by analyzing spiked calibration samples using six calibration standards over a calibration range of 0.5–800 ng/ml in mice plasma.\nAnalysis was carried out on U-HPLC instrument (Agilent Technologies, Santa Clara, CA) equipped with a quaternary pump, a degasser, a diode array detector, an auto sampler and a column compartment. Mass spectrometric analysis was carried out on an Agilent 6420 triple quadrupole (Agilent Technologies, Santa Clara, CA) equipped with electrospray ionization (ESI) source. The data acquisition was under the control of Mass Hunter software.\nFST and baicalein, an internal standard (IS), were separated on Agilent Eclipse plus C18 (2.1 mm × 50 mm, 1.8 μm) at constant temperature of 40 °C. The initial mobile phase consisted of 10 mM of ammonium formate (pH 3.5) and acetonitrile with gradient elution at a flow rate of 0.4 ml/min. Elution was in a gradient, the acetonitrile was kept constant at 2% in 0.5 min, and then increased to 98% in 1.5 min and maintained at 98% for another 2 min, then decreased to 2% in 3.8 min and maintained for 2.2 min. The total run time of the analysis was 5 min. After each injection, the sample manager was cleaned by a needle wash process with methanol–water (70/30 v/v). The typical operating source condition for MS scan in negative ion ESI mode were optimized as follow: collision energy 33 eV, cell accelerator voltage 7 eV, fragmentor 135, dwell time 200 ms, gas temperature 280 °C, gas flow 10 l/min and nebulizer 50 psi. The MRM modes of ions with m/z 284.8 → 134.8 for FST and m/z 268.8 → 166.8 for IS (baicalein) were utilized for quantitative analysis."}, "[5]": {"tested_on": "MCF-7 human breast adenocarcinoma cells", "experiment": "Cell viability assay (MTT assay)", "type": "cell-based", "details": "MCF7, MCF-7, 24 h of treatment", "procedure": "The cell viability assay (MTT assay) was performed in MCF-7 human breast adenocarcinoma cells. Cells were seeded at a density of 7 × 10^3 in DMEM medium supplemented with 10% FBS in a 96-well plate and incubated for 24 h at 37 °C in a humidified 5% CO2. The cells were exposed to different concentrations of FST, FHIC and FHIC-PNP for 24 h in order to ascertain the concentration at which 50% of the cells are viable. A volume of 10 μl of MTT solution (5 mg/ml in PBS) was added to each well. The plate was incubated for 4 h and thereafter the contents in the wells were replaced with 100 μl DMSO and again incubated for 10 min. The optical density was measured using a microplate reader (BioTek Instruments, Synergy 4, Winooski, VT) at 570 nm. The cytotoxicity of blank PNP was also studied to determine the toxicity of the nanocarrier system."}, "[6]": {"design": "method as in Bothiraja et al., 2014", "details": "ref Bothiraja et al., 2014; cited from earlier work"}, "MCF-7 cells": {"tested_on": "MCF-7 cells", "experiment": "Quantitative apoptosis by flow cytometer (Annexin V-FITC/PI)", "type": "cell-based, human", "details": "MCF-7, equivalent to 20 μg/ml FST, 24 h", "procedure": "For the quantitative analysis of apoptosis, cells were treated with FST, FHIC or FHIC-PNP (equivalent to 20 μg/ml FST) for 24 h. Cells were trypsinized, centrifuged at 1200 rpm for 5 min, washed three times with ice-cold PBS and were re-suspended in 500 μl of binding buffer. Thereafter, 5 μl of Annexin V-FITC and 10 μl of PI were added and mixed for 15 min in the dark. The stained cells were analyzed using a flow cytometer (FACS Calibur, BD, San Jose, CA). Data analysis was performed using Cell-Quest software (Becton Dickinson, Franklin Lakes, NJ)."}, "[7]": {"experiment": "In vitro drug release (dialysis bag method)", "type": "physicochemical", "details": "8 h, PBS pH 7.4 with 0.1% v/v Tween 80, 37 °C", "procedure": "Dialysis bag method was used to carry out the in vitro drug release studies. FST or FHIC-PNP dispersion equivalent to 1 mg of FST, was introduced into the dialysis bag (12 000–14 000 molecular weight cut off, Sigma Aldrich, St. Louis, MO) and placed in 100 ml of phosphate buffer saline pH 7.4 (PBS) containing 0.1%v/v Tween 80 as the release media and kept for stirring at 37 °C at 100 rpm. Samples were withdrawn at different time intervals and replaced with equal volume of media to maintain the sink condition. The collected samples were analyzed for amount of FST content by UV-visible spectrophotometry at 360 nm."}},
  "data": [
    {"compound": "O=c1c(O)c(-c2ccc(O)c(O)c2)oc2cc(O)ccc12", "note": "[FST, 2-(3,4-dihydroxyphenyl)-3,7-dihydroxychromen-4-one]", "values": [
      {"measurement": "solubility at 24 h", "setting": "[1]", "value": 5.25, "unit": "µg/mL"},
      {"measurement": "oral bioavailability", "setting": "[2]", "value": 44.1, "unit": "%"},
      {"measurement": "encapsulation/entrapment efficiency (EE)", "setting": "[3]; listed as native FST", "value": 47, "unit": "%"},
      {"measurement": "encapsulation/entrapment efficiency (EE)", "setting": "[3]; listed as pure FST", "value": 47.3, "unit": "%"},
      {"measurement": "Cl", "setting": "[4]", "value": "2022.59 ± 0.02", "unit": "mL/h"},
      {"measurement": "AUC(0-inf)", "setting": "[4]; female, mouse", "value": "100 ± 2.91", "unit": "ng·h/mL"},
      {"measurement": "AUC(0-t)", "setting": "[4]; female, mouse", "value": "80.4 ± 3.61", "unit": "ng·h/mL"},
      {"measurement": "Cmax", "setting": "[4]; female, mouse", "value": "69.3 ± 4.16", "unit": "ng/mL"},
      {"measurement": "MRT", "setting": "[4]; female, mouse", "value": "3.82 ± 2.15", "unit": "h"},
      {"measurement": "Tmax", "setting": "[4]; female, mouse", "value": "0.25 ± 1.2", "unit": "h"},
      {"measurement": "half-life", "setting": "[4]; female, mouse", "value": "3.26 ± 0.9", "unit": "h"},
      {"measurement": "IC50", "setting": "[5]", "value": "77.8 ± 2.12", "unit": "µg/mL"},
      {"measurement": "aqueous solubility", "setting": "[6]", "value": 10.45, "unit": "µg/mL"},
      {"measurement": "apoptosis induction", "setting": "MCF-7 cells", "value": 21.8, "unit": "%"},
      {"measurement": "FST released in vitro", "setting": "[7]", "value": "about 93%"}
    ]}
  ]
}
